17 compounds from patent US10800767B2, “Thyroid hormone receptor beta agonist compounds” (Terns, Inc., priority 2018, dated 2020) can be followed below.

As usually defined, the EC50 is the midpoint of the concentration-response curve.

In assay [1] the target is TR alpha-LBD (thyroid hormone receptor alpha) (Homo sapiens (Human), UniProt P10827). Put plainly: LanthaScreen TR-FRET Thyroid Receptor alpha Coactivator Assay (agonist screening). The class given is biochemical. The conditions noted are these: TR alpha-LBD 0.4 nM, 2 hour incubation, average of duplicate runs, read-out: EC50 THRα-FRET. The protocol: (§1) Example B1: Time-Resolved Fluorescence Resonance Energy Transfer (TR-FRET) Assay for Thyroid Hormone Receptor Agonist Screening
Chain of TR alpha-LBD (thyroid hormone receptor alpha) (P10827 other isoform, or with tags, fused parts or gaps del 1-162, other chains not shown): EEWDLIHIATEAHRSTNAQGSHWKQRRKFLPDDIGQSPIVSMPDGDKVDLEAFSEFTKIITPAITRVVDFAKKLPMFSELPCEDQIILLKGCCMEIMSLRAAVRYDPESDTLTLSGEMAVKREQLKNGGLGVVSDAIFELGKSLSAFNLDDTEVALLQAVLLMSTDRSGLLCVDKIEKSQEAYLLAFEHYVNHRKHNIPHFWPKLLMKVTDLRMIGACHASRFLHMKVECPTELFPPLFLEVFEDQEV
(§2) LanthaScreen™ TR-FRET Thyroid Receptor alpha Coactivator Assay kit (ThermoFisher) and LanthaScreen™ TR-FRET Thyroid Receptor beta Coactivator Assay kit (ThermoFisher) were used for agonist compound screening. Compounds in DMSO were diluted using ECHO Liquid Handler (Labcyte Inc.) into 384 plates in 10-point 3-fold series in duplicate (5 micro M final top concentration). Buffer C (ThermoFisher) was added to each well before the 4× mixture of fluorescein-SCR2-2 coactivator (200 nM final concentration), Terbium-labeled anti-GST antibody (2 nM final concentration), and TR alpha-LBD (0.4 nM final concentration) or TR beta-LBD (1.0 nM final concentration) was added. After 2 hour incubation at room temperature in dark, the TR-FRET signal was measured on an EnVision plate reader (PerkinElmer) with excitation at 340 nm and dual emission readout at 495 and 520 nm with the delay time of 100 micro second and the integration time of 200 micro second. The ratio of emission signal at 520 and at 495 was used to calculate EC50 using GraphPad Prism (GraphPad Software). In every batch of compound screening, T3 (L-3,3′,5-Triiodothyronine sodium salt, >95%) (Calbiochem) was used as reference compound. The EC50 of T3 measured were within 3-fold of the reference value provided by the assay kit manufacturer (ThermoFisher Scientific). The Z′ factors measured in every batch of screening using T3 as high percent effect (HPE) control and 0.5% DMSO as zero percent effect (ZPE) control were in the range of 0.5 to 0.8. Compounds' THR-beta selectivity values are derived from T3-selectivity normalized data.

Assay [2] deals with TR beta-LBD (thyroid hormone receptor beta) (Homo sapiens (Human), UniProt P10828). Put plainly: LanthaScreen TR-FRET Thyroid Receptor beta Coactivator Assay (agonist screening). It counts as biochemical. Particulars: for THRβ-Selectivity: THR beta over THR alpha, derived from T3-selectivity normalized data; for EC50: TR-FRET coactivator assay, TR beta-LBD 1.0 nM, 2 hour incubation, average of duplicate runs, read-out: EC50 THRβ-FRET. The protocol:
as §1, §2
A general note: TR-FRET usually uses a lanthanide donor and a delayed reading to cut background.

Chain of TR beta-LBD (thyroid hormone receptor beta) (P10828 217-461): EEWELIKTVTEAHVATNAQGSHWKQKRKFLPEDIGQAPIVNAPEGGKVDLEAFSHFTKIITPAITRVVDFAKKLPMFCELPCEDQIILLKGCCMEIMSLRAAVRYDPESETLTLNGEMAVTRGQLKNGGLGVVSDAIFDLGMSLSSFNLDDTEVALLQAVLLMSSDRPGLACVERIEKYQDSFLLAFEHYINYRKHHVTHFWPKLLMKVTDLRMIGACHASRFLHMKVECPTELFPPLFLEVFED

Consider `CC(C)c1cc(Oc2c(Cl)cc(NC(C)c3noc(=O)[nH]3)cc2Cl)nn(C)c1=O` (single isomer, unassigned) [Example 3-P1, 3-(1-((3,5-dichloro-4-((5-isopropyl-1-methyl-6-oxo-1,6-dihydropyridazin-3-yl)oxy)phenyl)amino)ethyl)-1,2,4-oxadiazol-5(4H)-one], for which the EC50 in assay [1] came to 75.9 nM. Besides, in assay [2], the THRβ-Selectivity is 1.0 and the concentration giving a half-maximal response (EC50) stood at 277 nM.

For `O=C(Nc1cc(Cl)c(Oc2cc(C34CC(C3)C4)c(=O)[nH]n2)c(Cl)c1)c1noc(=O)[nH]1` [Example 31, N-(4-((5-(bicyclo[1.1.1]pentan-1-yl)-6-oxo-1,6-dihydropyridazin-3-yl)oxy)-3,5-dichlorophenyl)-5-oxo-4,5-dihydro-1,2,4-oxadiazole-3-carboxamide], the concentration giving a half-maximal response (EC50) in assay [1] was more than 5000 nM. In addition, in assay [2], the THRβ-Selectivity is recorded as more than 34.8 and the half-maximal effective concentration (EC50) amounted to 600 nM.

In the case of `CC(CO)c1cc(Oc2c(Cl)cc(NC(=O)c3noc(=O)[nH]3)cc2Cl)nn(C)c1=O` (stereo not shown) [Example 35, N-(3,5-dichloro-4-((5-(1-hydroxypropan-2-yl)-1-methyl-6-oxo-1,6-dihydropyridazin-3-yl)oxy)phenyl)-5-oxo-4,5-dihydro-1,2,4-oxadiazole-3-carboxamide], the EC50 in assay [1] is 2600 nM. Besides, in assay [2], the THRβ-Selectivity is on record as 15.8 and the half-maximal effective concentration (EC50) came to 762 nM.

In the case of `CC(C)(O)c1cc(Oc2c(Cl)cc(NC(=O)c3noc(=O)[nH]3)cc2Cl)n[nH]c1=O` [Example 33, N-(3,5-dichloro-4-((5-(2-hydroxypropan-2-yl)-6-oxo-1,6-dihydropyridazin-3-yl)oxy)phenyl)-5-oxo-4,5-dihydro-1,2,4-oxadiazole-3-carboxamide], the EC50 in assay [1] was more than 5000 nM. For the same compound, in assay [2], the THRβ-Selectivity is more than 84.3 and the half-maximal effective concentration (EC50) came out at 212 nM.

`Cn1nc(Cc2c(Cl)cc(NC(=O)c3noc(=O)[nH]3)cc2Cl)cc(C2CC2)c1=O` [Example 22, N-(3,5-dichloro-4-((5-cyclopropyl-1-methyl-6-oxo-1,6-dihydropyridazin-3-yl)methyl)phenyl)-5-oxo-4,5-dihydro-1,2,4-oxadiazole-3-carboxamide]: the EC50 in assay [1] turned out to be 898 nM. Besides, in assay [2], the THRβ-Selectivity worked out at 19.5 and the EC50 was 181 nM.

Take `Cc1c(NCc2noc(=O)[nH]2)cc(Cl)c(Oc2cc(C(C)C)c(=O)n(C)n2)c1Cl` [Example 12, 3-(((3,5-dichloro-4-((5-isopropyl-1-methyl-6-oxo-1,6-dihydropyridazin-3-yl)oxy)-2-methylphenyl)amino)methyl)-1,2,4-oxadiazol-5(4H)-one]: in assay [1], the EC50 worked out at 152 nM. In assay [2], the THRβ-Selectivity turned out to be 6.2 and the EC50 turned out to be 71.2 nM.

In the case of `CC(C)c1cc(Oc2c(Cl)cc(-c3cc(=O)[nH]o3)cc2Cl)nn(C)c1=O` [Example 7, 5-(3,5-dichloro-4-((5-isopropyl-1-methyl-6-oxo-1,6-dihydropyridazin-3-yl)oxy)phenyl)isoxazol-3(2H)-one], the EC50 in assay [1] amounted to 473 nM. Besides, in assay [2], the THRβ-Selectivity worked out at 13.1 and the concentration for a half-maximal effect (EC50) worked out at 60.9 nM.

As to `CC(C)(C)c1cc(Oc2c(Cl)cc(NC(=O)c3noc(=O)[nH]3)cc2Cl)n[nH]c1=O` [Example 28, N-(4-((5-(tert-butyl)-6-oxo-1,6-dihydropyridazin-3-yl)oxy)-3,5-dichlorophenyl)-5-oxo-4,5-dihydro-1,2,4-oxadiazole-3-carboxamide], the EC50 in assay [1] came to 4260 nM; in assay [2], 286 nM. For the same compound, in assay [2], the THRβ-Selectivity worked out at 67.

Turning to `CC(C)c1cc(Oc2c(Cl)cc(N(C)Cc3noc(=O)[nH]3)cc2Cl)nn(C)c1=O` [Example 2, 3-(((3,5-dichloro-4-((5-isopropyl-1-methyl-6-oxo-1,6-dihydropyridazin-3-yl)oxy)phenyl)(methyl)amino)methyl)-1,2,4-oxadiazol-5(4H)-one], the EC50 in assay [1] and in assay [2] was more than 5000 nM each time.

As for `CC(C)c1cc(Oc2c(Cl)cc(NC(C)c3noc(=O)[nH]3)cc2Cl)nn(C)c1=O` (single isomer, unassigned) [Example 3-P2, 3-(1-((3,5-dichloro-4-((5-isopropyl-1-methyl-6-oxo-1,6-dihydropyridazin-3-yl)oxy)phenyl)amino)ethyl)-1,2,4-oxadiazol-5(4H)-one], the EC50 in assay [1] worked out at 817 nM. In assay [2], the THRβ-Selectivity is 4.2 and the EC50 turned out to be 732 nM.

Regarding `CC(C)c1cc(Cc2c(Cl)cc(NC(=O)c3noc(=O)[nH]3)cc2Cl)n[nH]c1=O` [Example 13, N-(3,5-dichloro-4-((5-isopropyl-6-oxo-1,6-dihydropyridazin-3-yl)methyl)phenyl)-5-oxo-4,5-dihydro-1,2,4-oxadiazole-3-carboxamide], the concentration for a half-maximal effect (EC50) in assay [1] came out at 1630 nM. Besides, in assay [2], the THRβ-Selectivity came to 86.5 and the EC50 worked out at 53.6 nM.

For the compound `CC(O)c1cc(Oc2c(Cl)cc(NC(=O)c3noc(=O)[nH]3)cc2Cl)n[nH]c1=O` (stereo not shown) [Example 29, N-(3,5-dichloro-4-((5-(1-hydroxyethyl)-6-oxo-1,6-dihydropyridazin-3-yl)oxy)phenyl)-5-oxo-4,5-dihydro-1,2,4-oxadiazole-3-carboxamide], the 50% effective concentration (EC50) in assay [1] is 4340 nM. Also, in assay [2], the THRβ-Selectivity is given as 88.9 and the 50% effective concentration (EC50) is 235 nM.

`CC[C@H](O)c1cc(Oc2c(Cl)cc(NC(=O)c3noc(=O)[nH]3)cc2Cl)n[nH]c1=O` [Example 32P2, (S)—N-(3,5-dichloro-4-((5-(1-hydroxypropyl)-6-oxo-1,6-dihydropyridazin-3-yl)oxy)phenyl)-5-oxo-4,5-dihydro-1,2,4-oxadiazole-3-carboxamide]: the EC50 is 1150 nM in assay [1] and 43.3 nM in assay [2]. Moreover, the THRβ-Selectivity in assay [2] stood at 81.

As for `CC(C)c1cc(Oc2c(Cl)cc(NCc3noc(=O)[nH]3)c(F)c2Cl)nn(C)c1=O` [Example 27, 3-(((3,5-dichloro-2-fluoro-4-((5-isopropyl-1-methyl-6-oxo-1,6-dihydropyridazin-3-yl)oxy)phenyl)amino)methyl)-1,2,4-oxadiazol-5(4H)-one], the 50% effective concentration (EC50) in assay [1] came out at 144 nM. In addition, in assay [2], the THRβ-Selectivity was 21.5 and the EC50 came to 26.8 nM.

In the case of `Cc1c(NC(=O)c2noc(=O)[nH]2)cc(Cl)c(Oc2cc(C(C)C)c(=O)n(C)n2)c1Cl` [Example 11, N-(3,5-dichloro-4-((5-isopropyl-1-methyl-6-oxo-1,6-dihydropyridazin-3-yl)oxy)-2-methylphenyl)-5-oxo-4,5-dihydro-1,2,4-oxadiazole-3-carboxamide], the EC50 in assay [1] stood at 192 nM. In assay [2], the THRβ-Selectivity turned out to be 4.8 and the EC50 is 116 nM.

As to `CC(C)c1cc(S(=O)(=O)c2c(Cl)cc(NC(=O)c3noc(=O)[nH]3)cc2Cl)nn(C)c1=O` [Example 20, N-(3,5-dichloro-4-((5-isopropyl-1-methyl-6-oxo-1,6-dihydropyridazin-3-yl)sulfonyl)phenyl)-5-oxo-4,5-dihydro-1,2,4-oxadiazole-3-carboxamide], the EC50 in assay [1] and in assay [2] was more than 5000 nM in each case.

Regarding `C[C@H](O)c1cc(Oc2c(Cl)cc(NC(=O)c3noc(=O)[nH]3)cc2Cl)n[nH]c1=O` [Example 29P2, (S)—N-(3,5-dichloro-4-((5-(1-hydroxyethyl)-6-oxo-1,6-dihydropyridazin-3-yl)oxy)phenyl)-5-oxo-4,5-dihydro-1,2,4-oxadiazole-3-carboxamide], in assay [1], the concentration giving a half-maximal response (EC50) stood at 1760 nM. For the same compound, in assay [2], the THRβ-Selectivity is reported as 80.8 and the EC50 was found to be 91.3 nM.
